One assay has as its target T1, photosystem II (PS II) (Spinacia oleracea, UniProt P69560).
T1 construct: the chloroplasts were osmotically ruptured and the thylakoid membranes were then obtained by centrifugation; from tissue; host or cells: spinach leaves (thylakoid membrane preparation)
Put plainly: Activity determination of photosystem II (PS II) in thylakoid membranes, DCPIP reduction. It is filed as biochemical. Conditions: spinach thylakoid membranes, DCPIP 120 μM, 10 min at 22° C. with illumination; read-out: pI50 (converted). The protocol:
Measurement of PS II Activity in Thylakoid Membranes
1. Preparation of the Thylakoid Membranes
Cooled fresh spinach leaves were comminuted and homogenized in 50 mM phosphate buffer, pH 6.8, 10 mM KCl, 0.34 M sucrose (sucrose buffer) (mixer, 1 g of plant material/ml). The homogenate was subsequently filtered through 4 layers of Miracloth and the chloroplasts were obtained by centrifugation: • 10 minutes (min) of centrifugation at 4400×g (4° C.). • The sediment was suspended in 25 ml of sucrose buffer and centrifuged for another 10 min at 4400×g (4° C.). • The sediment was then suspended in 40 ml of 50 mM phosphate buffer, pH 6.8, 10 mM KCl, without sucrose. • In this step, the chloroplasts were osmotically ruptured and the thylakoid membranes were then obtained by centrifugation (10 min, 4400×g, 4° C.). The membrane sediment was finally suspended in about 20 ml of 50 mM phosphate buffer, pH 6.8, 10 mM KCl. • After protein determination and activity determination, the membrane suspension was aliquoted and frozen in liquid nitrogen. The aliquots were stored at −80° C. Under these conditions, the photosystem II preparation is storage-stable for at least three months.
2. Activity Determination of the Photosystem II (PS II)
The electron transfer from PS II to an artificial electronic captor, 2,6-dichlorophenol-indophenol (DCPIP), is measured under the action of light. The concentration of the blue oxidized form of DCPIP can be determined spectraphotometrically at the wavelength l=595 nm. The enzyme-catalyzed reduction of DCPIP results in a colourless leuco form and thus to a decrease of absorption at 595 nm in the reaction batch, which is measured as a function of time.
The activity determination was carried out in microtiter plates (96 wells) in a reaction volume of 200 μl. 155 μl of dilute membrane suspension in 50 mM phosphate buffer, pH 6.8, 10 mM KCl were initially charged. Depending on the activity of the PS II preparation, the dilution was adjusted such that measurement of the decrease in absorption (λ=595 nm) was linear for at least 10 min.
Typical dilution series of the test compounds comprised 10 concentration steps in the range between 10^−9and 10^−5 M.
On each microtiter plate, a known PS II inhibitor, e.g. metribuzin, was used as standard for assessing the quality of the PS II test.
The reaction was initiated by addition of 40 μl DCPIP solution (600 μM in distilled water); the final concentration of DCPIP was 120 μM.
Absorption was measured over a period of 10 min at 22° C. and with illumination. For calculating the active compound concentration at which 50% of the enzyme activity is inhibited (IC50), the relative enzymatic activity (in %) was plotted as a function of the logarithm of the active compound concentration.
`CC1=C(C)C(O)N(C2=NN(c3ccccc3)C(C(F)(F)F)C2)C1=O` (stereo not drawn) [I.2-1413]: the IC50 is 5.01 µM.

The next assay relates to Veronica persica. Put plainly: Pre-emergence herbicidal action, VERPE. The assay is classed as in vivo. As to conditions: application rate 1280 g/ha, scored visually after about 3 weeks. From the text:
Pre-Emergence Herbicidal Action Seeds of mono- and dicotyledonous weed plants or crop plants were placed in sandy loam in wood fibre pots and covered with soil. The formulated compounds of the general formula (I) according to the invention were then applied to the surface of the covering soil in the form of an aqueous suspension or emulsion at an application rate of 600 l of water/ha (converted) with addition of 0.2% wetting agent. After the treatment, the pots were placed in a greenhouse and kept under good growth conditions for the test plants. After about 3 weeks, the effect was scored visually in percent in comparison to untreated controls. For example, 100% activity=the plants have died, 50% herbicidal activity or damage=plants reduced to 50% or plant material reduced by 50%, 0% activity=like control plants. Here, in the biological tests, the compounds of the general formula (I) according to the invention were in each case employed in a formulation, with the numerations of Tables I.1 to I.77 also applying here. Here, the herbicidal action of the compounds of the general formula (I) according to the invention was examined for the following harmful plants: VERPE=Veronica persica The respective herbicidal action was in each case determined at the same point in time after application of the formulation in question, i.e. damage of the harmful plant in question in %. Pre-emergence herbicidal action of the compounds of the general formula (I) according to the invention: […]
Turning to `CC1=C(C)C(O)N(C2=NN(c3ccccn3)C(C)(C)C2)C1=O` (stereo not drawn) [I.2-132], the “Pre-emergence herbicidal action VERPE, damage of the harmful plant” value (from here on “Pre-emergence herbicidal action VERPE”) is 30%.
Turning to `CCC(=O)OC1C(C)=C(C)C(=O)N1C1=NN(c2ccccn2)C(C)(C)C1` (stereo not drawn) [I.23-132], the “Pre-emergence herbicidal action VERPE” value is reported as 60%.
As for `CCC(=O)OC1C(C)=C(C)C(=O)N1C1=NN(c2ccccc2)CC1` (stereo not drawn) [I.23-621], the “Pre-emergence herbicidal action VERPE” value worked out at 0%.
`CCC(=O)OC1C(C)=C(C)C(=O)N1C1=NN(c2ccccc2)C(C(F)(F)F)C1` (stereo not drawn) [I.23-1413]: the “Pre-emergence herbicidal action VERPE” value was found to be 60%.
Same read-out and setting: the same measure for `CCC(=O)OC1C(C)=C(Cl)C(=O)N1C1=NN(C)C(c2ccccc2)C1` (stereo not drawn) [I.24-1126]: 0%.

(Values after patent US20190166840A1, “SUBSTITUTED PYRAZOLINYL DERIVATIVES, PROCESSES FOR THEIR PREPARATION AND THEIR USE AS HERBICIDES AND/OR PLANT GROWTH REGULATORS” (BAYER CROPSCIENCE AKTIENGESELLSCHAFT, priority 2016, published 2019).)
